Assay: Hepatic content in dead rats by high-pressure liquid chromatography on a chiral column
Assay type: in vivo, rat
Description: About 0.525 g (±0.025 g) of rat liver is weighed out accurately and placed in a 50 mL polypropylene tube. 10 mL of acetone are added and the suspension is homogenized using an Ultra-Turrax® homogenizer/disperser for a time of about 30 seconds. The homogenizer/disperser shaft is rinsed with hot water and then twice with 20 mL of acetone in a polypropylene tube. The homogenate is centrifuged for 5 minutes at a centrifugation speed of 3000 rpm (revolutions per minute). The supernatant is collected and transferred into a test tube. The sample is subjected to evaporation under a stream of nitrogen (N2) at a temperature of 40° C. so as to form a dry extract.
1 mL of acetonitrile is added to the tube containing the dry extract so as to dissolve it. […]
The solution containing difethialone is analysed by high-pressure liquid chromatography on a LUX® Cellulose-3 chiral column (Phenomenex, Le Pecq, France) (150×2 mm, particle size of 3 μm) as described in point A2) above.
The measured values, expressed as micrograms of dextrorotatory enantiomer of said hetero-stereoisomer (“DFN-Hetero-dextro”) per gram of liver, are given in table 2 below.
The hepatic content of the dextrorotatory enantiomer of said hetero-stereoisomer of difethialone in each of the rats which die between D5 and D8 is measured by high-pressure liquid chromatography analysis on a chiral column. […]

O=c1sc2ccccc2c(O)c1C1CC(c2ccc(-c3ccc(Br)cc3)cc2)Cc2ccccc21 (centres unmarked) [Total difethialone, 3-(4′-bromobiphenyl-4-yl)-1-(4-hydroxythiocoumarin-3-yl)-1,2,3,4-tetrahydronaphthalene]
Hepatic content, mean (liver of rats which die between D5 and D8 after 10.6 ppm bait): 15.113 µg/g | Hepatic content, mean (liver of rats which die between D9 and D13 after 3.7 ppm bait): 5.372 µg/g

— patent US20190150438A1, “CONFIGURATIONAL STEREOISOMER OF DIFETHIALONE, COMPOSITION AND RODENTICIDE BAIT COMPRISING SAME, AND METHOD FOR CONTROLLING TARGET RODENT PESTS” (priority 2015, published 2019)
